Test results from US11891388B2 (Incyte Corporation, priority 2016, dated 2024).
pKi: −log10 of the molar value.

Target: HPK1 (Homo sapiens, UniProt Q92918)
Test: HPK1 Kinase Binding Assay
Conditions: LanthaScreen tracer 222 binding, active HPK1, one hour incubation at 25° C.
Description: A stock solution of 1 mM test compound was prepared in DMSO. The compound plate was prepared by 3-fold and 11-point serial dilutions. 0.1 μL of the compound in DMSO was transferred from the compound plate to the white 384 well polystyrene plates. The assay buffer contained 50 mM HEPES, pH 7.5, 0.01% Tween-20, 5 mM MgCl2, 0.01% BSA, and 5 mM DTT. 5 μl of 4 nM active HPK1 (SignalChem M23-11G) prepared in the buffer was added to the plate. The enzyme concentration given was based on the given stock concentration reported by the vender. 5 μl of 18 nM tracer 222 (ThermoFisher PV6121) and 4 nM LanthaScreen Eu-Anti GST antibody (ThermoFisher PV5595) were added. After one hour incubation at 25° C., the plates were read on a PHERAstar FS plate reader (BMG Labtech). Ki values were determined.

Row | Compound | pKi
1 | CN1CCN(c2ccc(-c3n[nH]c4ccc(-c5ccccc5)nc34)cc2)CC1 [Example 1, 3-(4-(4-Methylpiperazin-1-yl)phenyl)-5-phenyl-1H-pyrazolo[4,3-b]pyridine] | 6.30 to 7.00
2 | COc1ccccc1-c1ccc2[nH]nc(-c3ccc(N4CCN(C)CC4)cc3)c2n1 [Example 2] | 6.30 to 7.00
3 | CN1CCN(c2ccc(-c3n[nH]c4ccc(-c5ccccc5O)nc34)cc2)CC1 [Example 14, 2-(3-(4-(4-Methylpiperazin-1-yl)phenyl)-1H-pyrazolo[4,3-b]pyridin-5-yl)phenol] | 6.30 to 7.00
4 | CN1CCN(c2ccc(-c3n[nH]c4ccc(-c5cccc6c5OCC6)nc34)cc2)CC1 [Example 15, 5-(2,3-Dihydrobenzofuran-7-yl)-3-(4-(4-methylpiperazin-1-yl)phenyl)-1H-pyrazolo[4,3-b]pyridine] | 6.30 to 7.00
5 | CN1CCN(c2ccc(-c3n[nH]c4ccc(-c5cccc6c5OCCO6)nc34)cc2)CC1 [Example 16, 5-(2,3-Dihydrobenzo[b][1,4]dioxin-5-yl)-3-(4-(4-methylpiperazin-1-yl)phenyl)-1H-pyrazolo[4,3-b]pyridine] | 6.30 to 7.00
6 | CNC(=O)c1cccc(-c2ccc3[nH]nc(-c4ccc(N5CCN(C)CC5)cc4)c3n2)c1 [Example 17, N-Methyl-3-(3-(4-(4-methylpiperazin-1-yl)phenyl)-1H-pyrazolo[4,3-b]pyridin-5-yl)benzamide] | 6.30 to 7.00
7 | CN1CCN(c2ccc(-c3n[nH]c4ccc(-c5cccc(N(C)C)c5)nc34)cc2)CC1 [Example 18, N,N-Dimethyl-3-(3-(4-(4-methylpiperazin-1-yl)phenyl)-1H-pyrazolo[4,3-b]pyridin-5-yl)aniline] | 5.00 to 6.30
8 | COC(=O)c1ccccc1-c1ccc2[nH]nc(-c3ccc(N4CCN(C)CC4)cc3)c2n1 [Example 20, Methyl 2-(3-(4-(4-methylpiperazin-1-yl)phenyl)-1H-pyrazolo[4,3-b]pyridin-5-yl)benzoate] | 5.00 to 6.30
9 | CC(=O)Nc1ccccc1-c1ccc2[nH]nc(-c3ccc(N4CCN(C)CC4)cc3)c2n1 [Example 21, N-(2-(3-(4-(4-Methylpiperazin-1-yl)phenyl)-1H-pyrazolo[4,3-b]pyridin-5-yl)phenyl)acetamide] | 5.00 to 6.30
10 | CN1CCN(c2ccc(-c3n[nH]c4ccc(-c5ccccc5-c5ccccc5)nc34)cc2)CC1 [Example 22, 5-(Biphenyl-2-yl)-3-(4-(4-methylpiperazin-1-yl)phenyl)-1H-pyrazolo[4,3-b]pyridine] | 6.30 to 7.00
11 | CN1CCN(c2ccc(-c3n[nH]c4ccc(-c5ccncc5)nc34)cc2)CC1 [Example 25, 3-(4-(4-Methylpiperazin-1-yl)phenyl)-5-(pyridin-4-yl)-1H-pyrazolo[4,3-b]pyridine] | 6.30 to 7.00
12 | CN1CCN(c2ccc(-c3n[nH]c4ccc(-c5ccc(=O)n(C)c5)nc34)cc2)CC1 [Example 30, 1-Methyl-5-(3-(4-(4-methylpiperazin-1-yl)phenyl)-1H-pyrazolo[4,3-b]pyridin-5-yl)pyridin-2(1H)-one] | 5.00 to 6.30
13 | CN1CCN(c2ccc(-c3n[nH]c4ccc(-c5cccc6ncccc56)nc34)cc2)CC1 [Example 36, 5-(3-(4-(4-Methylpiperazin-1-yl)phenyl)-1H-pyrazolo[4,3-b]pyridin-5-yl)quinoline] | 6.30 to 7.00
14 | CN1CCN(c2ccc(-c3n[nH]c4ccc(-c5cccc6c5CC(=O)N6)nc34)cc2)CC1 [Example 38, 4-(3-(4-(4-Methylpiperazin-1-yl)phenyl)-1H-pyrazolo[4,3-b]pyridin-5-yl)indolin-2-one] | 6.30 to 7.00
15 | CN1CCN(c2ccc(-c3n[nH]c4ccc(-c5cccc6c5ccn6C)nc34)cc2)CC1 [Example 39, 5-(1-Methyl-1H-indol-4-yl)-3-(4-(4-methylpiperazin-1-yl)phenyl)-1H-pyrazolo[4,3-b]pyridine] | 6.30 to 7.00
16 | CCc1cn2cccc(-c3ccc4[nH]nc(-c5ccc(N6CCN(C)CC6)cc5)c4n3)c2n1 [Example 45, 5-(2-Ethylimidazo[1,2-a]pyridin-8-yl)-3-(4-(4-methylpiperazin-1-yl)phenyl)-1H-pyrazolo[4,3-b]pyridine] | 6.30 to 7.00
17 | CN1CCN(c2ccc(-c3n[nH]c4ccc(-c5cccc6c5CCC6NCCO)nc34)cc2)CC1 (centres unmarked) [Example 49, 2-(4-(3-(4-(4-Methylpiperazin-1-yl)phenyl)-1H-pyrazolo[4,3-b]pyridin-5-yl)-2,3-dihydro-1H-inden-1-ylamino)ethanol] | ≥ 7.00
18 | Fc1ccccc1-c1ccc2[nH]nc(-c3ccccc3)c2n1 [Example 51, 5-(2-Fluorophenyl)-3-phenyl-1H-pyrazolo[4,3-b]pyridine] | 5.00 to 6.30
19 | Fc1ccccc1-c1ccc2[nH]nc(-c3ccncc3)c2n1 [Example 52, 5-(2-Fluorophenyl)-3-(pyridin-4-yl)-1H-pyrazolo[4,3-b]pyridine] | 5.00 to 6.30
20 | CNC(=O)c1ccc(-c2n[nH]c3ccc(-c4ccccc4F)nc23)cc1 [Example 53, 4-(5-(2-Fluorophenyl)-1H-pyrazolo[4,3-b]pyridin-3-yl)-N-methylbenzamide] | 6.30 to 7.00
21 | Cn1cc(-c2n[nH]c3ccc(-c4ccccc4F)nc23)cn1 [Example 54] | 6.30 to 7.00
22 | CN1CCN(C(=O)c2ccc(-c3n[nH]c4ccc(-c5ccccc5F)nc34)cc2)CC1 [Example 56, (4-(5-(2-Fluorophenyl)-1H-pyrazolo[4,3-b]pyridin-3-yl)phenyl)(4-methylpiperazin-1-yl)methanone] | 5.00 to 6.30
23 | O=C(Nc1ccccc1)c1ccc(-c2n[nH]c3ccc(-c4ccccc4F)nc23)cc1 [Example 57, 4-(5-(2-Fluorophenyl)-1H-pyrazolo[4,3-b]pyridin-3-yl)-N-phenylbenzamide] | 5.00 to 6.30
24 | Fc1ccccc1-c1ccc2[nH]nc(-c3cnn(C4CCNCC4)c3)c2n1 [Example 58, 5-(2-Fluorophenyl)-3-(1-(piperidin-4-yl)-1H-pyrazol-4-yl)-1H-pyrazolo[4,3-b]pyridine] | 6.30 to 7.00
25 | CS(=O)(=O)N1CCC(n2cc(-c3n[nH]c4ccc(-c5ccccc5F)nc34)cn2)CC1 [Example 59, 5-(2-Fluorophenyl)-3-(1-(1-(methylsulfonyl)piperidin-4-yl)-1H-pyrazol-4-yl)-1H-pyrazolo[4,3-b]pyridine] | 5.00 to 6.30
26 | CC(=O)N1CCC(n2cc(-c3n[nH]c4ccc(-c5ccccc5F)nc34)cn2)CC1 [Example 60, 1-(4-(4-(5-(2-Fluorophenyl)-1H-pyrazolo[4,3-b]pyridin-3-yl)-1H-pyrazol-1-yl)piperidin-1-yl)ethanone] | 5.00 to 6.30
